Data: ChEMBL document CHEMBL3763037 (J Med Chem, 2016)
Calls of active or inactive are those of the source. The rule behind the calls is not given here.

Legend:
LoVo [1] = assay: cells; conditions: Homo sapiens, 120 h
[2] = target: Poly [ADP-ribose] polymerase 1 (Homo sapiens, UniProt P09874); assay: Inhibition of human PARP1 using [3H]NAD as substrate after 1 min by microplate scintillation counting analysis
[3] = Half life in rat liver microsomes; format: ADME
PARP 1, 2 and 3 = PARP 1, 2 and 3 (Homo sapiens, UniProt P09874+Q9Y6F1+Q9UGN5); assay: Inhibition of PARP in human LoVo cells assessed as inhibition of poly(ADP)-ribose polymerization for 30 mins by fluorescence assay; format: cell-based
[4] = Cytotoxicity against BRCA2-deficient human Capan1 cells; format: functional, cell-based, CAPAN-1
[5] = Clearance in beagle dog at 0.025 mg/kg, iv; format: ADME, organism-based, Canis lupus familiaris; conditions: in vivo
[6] = Volume of distribution at steady state in beagle dog at 0.025 mg/kg, iv; format: ADME, organism-based, Canis lupus familiaris; conditions: in vivo, read-out: Vdss
[7] = Half life in beagle dog at 0.025 mg/kg, iv; format: ADME, organism-based, Canis lupus familiaris; conditions: in vivo
[8] = Cmax in beagle dog at 0.025 mg/kg, iv; format: ADME, organism-based, Canis lupus familiaris; set-up: dose 0.025 mg/kg, route intravenous; conditions: in vivo
Canis familiaris [9] = assay: AUC(0 to infinity) in beagle dog at 0.01 mg/kg, po; format: ADME, organism-based, Canis lupus familiaris; set-up: dose 0.01 mg/kg, time infinity, route oral; conditions: in vivo
[10] = Apparent oral volume of distribution in beagle dog at 0.01 mg/kg, po; format: ADME, organism-based, Canis lupus familiaris; conditions: in vivo
Canis familiaris [11] = assay: AUC(0 to infinity) in beagle dog at 0.025 mg/kg, iv; format: ADME, organism-based, Canis lupus familiaris; set-up: dose 0.025 mg/kg, time infinity, route intravenous; conditions: in vivo
Canis familiaris [12] = assay: Absolute oral bioavailability in beagle dog at 0.01 mg/kg; format: ADME, organism-based, Canis lupus familiaris; conditions: in vivo
[13] = AUC(0 to time) in beagle dog at 0.01 mg/kg, po; format: ADME, organism-based, Canis lupus familiaris; conditions: in vivo
Canis familiaris [14] = assay: Clast in beagle dog at 0.01 mg/kg, po; format: ADME, organism-based, Canis lupus familiaris; conditions: in vivo
[15] = AUC(0 to t) in beagle dog at 0.025 mg/kg, iv; format: ADME, organism-based, Canis lupus familiaris; conditions: in vivo
Canis familiaris [16] = assay: Clast in beagle dog at 0.025 mg/kg, iv; format: ADME, organism-based, Canis lupus familiaris; conditions: in vivo
[17] = Tmax in beagle dog at 0.01 mg/kg, po; format: ADME, organism-based, Canis lupus familiaris; conditions: in vivo
[18] = Half life in beagle dog at 0.01 mg/kg, po; format: ADME, organism-based, Canis lupus familiaris; conditions: in vivo
[19] = Cmax in beagle dog at 0.01 mg/kg, po; format: ADME, organism-based, Canis lupus familiaris; set-up: dose 0.01 mg/kg, route oral; conditions: in vivo
MRC5 = assay: Cytotoxicity against human MRC5 cells; format: cell-based
MX1 = assay: Antitumor activity against BRCA1 deficient human MX1 cells xenografted in athymic nu/nu mouse at 100 mg/kg, po qd; format: functional, organism-based
LoVo [20] = test system: LoVo
[21] = Terminal eliminational half life in Sprague-Dawley rat at 5 mg/kg, iv by LC-MS/MS analysis; format: ADME, organism-based; conditions: Sprague-Dawley, in vivo, read-out: beta t1/2 (converted)
[22] = Clearance in Sprague-Dawley rat at 5 mg/kg, iv by LC-MS/MS analysis; format: ADME, organism-based; conditions: in vivo
[23] = Cmax in Sprague-Dawley rat at 10 mg/kg, po by LC-MS/MS analysis; format: ADME, organism-based; set-up: dose 10 mg/kg, route oral; conditions: in vivo
[24] = (§1) Oral bioavailability in Sprague-Dawley rat at 10 mg/kg by LC-MS/MS analysis; format: ADME, organism-based; conditions: Sprague-Dawley, in vivo
Mus musculus = assay: Decrease in PAR level in athymic nu/nu mouse xenografted with human MX1 cells at 100 mg/kg, po measured after 2 and 8 hrs by ELISA; format: functional, organism-based
[25] = Volume of distribution at steady state in Sprague-Dawley rat at 5 mg/kg, iv by LC-MS/MS analysis; format: ADME, organism-based; conditions: in vivo, read-out: Vdss
[26] = (§2) AUC in Sprague-Dawley rat at 10 mg/kg, po by LC-MS/MS analysis; format: ADME, organism-based; conditions: Sprague-Dawley, in vivo
Rattus norvegicus [27] = assay: as §1; format: ADME, organism-based; conditions: in vivo
Rattus norvegicus [28] = assay: as §2; format: ADME, organism-based; conditions: in vivo

Chain of Poly [ADP-ribose] polymerase 1 (P09874 whole entry): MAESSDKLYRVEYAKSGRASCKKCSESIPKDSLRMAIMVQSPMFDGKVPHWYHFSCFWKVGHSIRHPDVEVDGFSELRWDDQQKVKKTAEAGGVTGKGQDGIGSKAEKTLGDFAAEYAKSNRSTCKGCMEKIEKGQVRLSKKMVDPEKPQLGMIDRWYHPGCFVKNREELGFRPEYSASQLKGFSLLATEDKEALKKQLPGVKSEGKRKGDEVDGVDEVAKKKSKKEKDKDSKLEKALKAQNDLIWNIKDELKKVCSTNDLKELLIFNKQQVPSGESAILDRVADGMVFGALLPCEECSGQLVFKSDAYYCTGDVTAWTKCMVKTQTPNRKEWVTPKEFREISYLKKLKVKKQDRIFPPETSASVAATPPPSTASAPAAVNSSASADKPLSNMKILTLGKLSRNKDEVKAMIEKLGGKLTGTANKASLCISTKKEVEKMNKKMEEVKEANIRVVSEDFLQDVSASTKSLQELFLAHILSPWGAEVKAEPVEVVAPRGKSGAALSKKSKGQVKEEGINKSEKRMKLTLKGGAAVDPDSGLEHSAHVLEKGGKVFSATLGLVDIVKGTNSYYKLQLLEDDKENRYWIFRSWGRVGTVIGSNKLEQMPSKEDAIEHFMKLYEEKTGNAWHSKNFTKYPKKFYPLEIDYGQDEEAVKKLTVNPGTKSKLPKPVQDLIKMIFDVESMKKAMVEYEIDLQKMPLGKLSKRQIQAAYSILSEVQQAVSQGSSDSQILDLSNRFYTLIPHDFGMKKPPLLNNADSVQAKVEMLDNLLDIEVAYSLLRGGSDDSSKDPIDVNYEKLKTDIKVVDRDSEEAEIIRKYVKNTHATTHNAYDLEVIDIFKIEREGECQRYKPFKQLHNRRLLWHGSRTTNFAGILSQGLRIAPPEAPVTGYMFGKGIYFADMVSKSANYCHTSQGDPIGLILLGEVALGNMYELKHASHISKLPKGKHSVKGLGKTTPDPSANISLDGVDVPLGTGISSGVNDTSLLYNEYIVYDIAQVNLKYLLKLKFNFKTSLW

SMILES | GI50 (LoVo [1]) [nM] | IC50 [2] [nM] | half-life [3] [h] | EC50 (PARP 1, 2 and 3) [nM] | EC50 ([4]; Homo sapiens, CAPAN-1) [nM] | also measured
Cn1ncnc1C1c2n[nH]c(=O)c3cccc(c23)NC1c1ccc(F)cc1 (stereo not drawn) | 44000 | 2.29 | > 2 | 6.94 | 71 | –
CN(C)Cc1ccc(C2Nc3cccc4c(=O)[nH]nc(c34)C2c2ccc(F)cc2)cc1 (stereo not drawn) | 76000 | 2.48 | 0.733 | 18.5 | 1730 | –
Cc1ccc(S(=O)(=O)O)cc1.Cn1ncnc1[C@H]1c2n[nH]c(=O)c3cc(F)cc(c23)N[C@@H]1c1ccc(F)cc1 [TALAZOPARIB TOSYLATE] | – | – | – | – | – | clearance [5]: 3.3 mL/min/kg; Vd [6]: 4.67 L/kg; half-life [7]: 26.7 h; Cmax [8]: 18.9 ng/mL; AUC (Canis familiaris [9]): 611 ng·h/mL; Vd/F [10]: 5.81 L/kg; AUC (Canis familiaris [11]): 135 ng·h/mL; F (Canis familiaris [12]): 118.7%; AUC [13]: 600 ng·h/mL; Clast (Canis familiaris [14]): 0.313 ng/mL; AUC(0-t) [15]: 129 ng·h/mL; Clast (Canis familiaris [16]): 0.182 ng/mL; Tmax [17]: 4 h; half-life [18]: 24.4 h; Cmax [19]: 68 ng/mL
CNCc1ccc(-c2[nH]c3cc(F)cc4c3c2CCNC4=O)cc1 [RUCAPARIB] | 144 | – | – | – | – | EC50 (MRC5; Homo sapiens, MRC5): 8530 nM
O=C(c1cc(Cc2n[nH]c(=O)c3ccccc23)ccc1F)N1CCN(C(=O)C2CC2)CC1 [OLAPARIB] | – | – | – | – | 259 | Activity (MX1): inactive; GI50 (LoVo [20]): 237 nM; half-life [21]: 0.53 h; clearance [22]: 34.3 mL/min/kg; Cmax [23]: 437 ng/mL; bioavailability [24]: 11%; inhibition (Mus musculus): Active; Vd [25]: 0.83 L/kg; EC50 (MRC5; Homo sapiens, MRC5): 5830 nM; AUC [26]: 559 ng·h/mL
Cc1ccc(C2c3n[nH]c(=O)c4cccc(c34)NC2c2ccc(CN(C)C)cc2)cc1 (stereo not drawn) | 123000 | 1.95 | 0.583 | 10.8 | 514 | –
Cn1ccnc1[C@H]1c2n[nH]c(=O)c3cccc(c23)N[C@@H]1c1ccc(F)cc1 | 261 | 2.25 | – | 6.9 | 305 | half-life [21]: 2.3 h; clearance [22]: 4 mL/min/kg; Cmax [23]: 10500 ng/mL; bioavailability [24]: 91%; Vd [25]: 0.5 L/kg; AUC [26]: 36500 ng·h/mL
Cn1ccnc1C1c2n[nH]c(=O)c3cccc(c23)NC1c1ccc(F)cc1 (stereo not drawn) | 75500 | 2.08 | > 2 | 19.7 | 418 | –
Cn1ccnc1[C@H]1c2n[nH]c(=O)c3cc(F)cc(c23)N[C@@H]1c1ccc(F)cc1 | 25 | 1.6 | – | 17.9 | 39 | half-life [21]: 2.1 h; Cmax [23]: 3990 ng/mL; F (Rattus norvegicus [27]): 68%; Vd [25]: 0.73 L/kg; AUC (Rattus norvegicus [28]): 1810 ng·h/mL
C[C@]1(c2nc3c(C(N)=O)cccc3[nH]2)CCCN1 [VELIPARIB] | 6200 | – | – | – | – | EC50 (MRC5; mrc5): > 10000 nM; EC50 ([4]; capan-1): > 10000 nM

More lines, main results first:

GI50 (LoVo [1]) [nM] | IC50 [2] [nM] | half-life [3] [h] | EC50 (PARP 1, 2 and 3) [nM] | SMILES | EC50 ([4]; Homo sapiens, CAPAN-1) [nM] | also measured
54600 | 2.02 | 0.317 | 40.6 | CN1CCN(Cc2ccc(C3Nc4cccc5c(=O)[nH]nc(c45)C3c3ccccc3)cc2)CC1 (stereo not drawn) | 603 | –
– | 2.08 | > 2 | – | CC(=O)Nc1ccc(C2Nc3cc(F)cc4c(=O)[nH]nc(c34)C2c2ncnn2C)cc1 (stereo not drawn) | 146 | –
59000 | 2.36 | 0.2 | 6 | CN(C)Cc1ccc(C2Nc3cccc4c(=O)[nH]nc(c34)C2c2ccccc2)cc1 (stereo not drawn) | 387 | –
46000 | 3.29 | 0.0833 | 8.48 | CN(C)Cc1ccc(C2Nc3cc(F)cc4c(=O)[nH]nc(c34)C2c2ccccc2)cc1 (stereo not drawn) | 146 | –
